Consider 2 compounds from patent publication US20200383331A1, “COMPOSITIONS AND METHODS FOR LARGE-SCALE IN VITRO PLANT BIOCULTURE” (BOOSHOOT, LLC, priority 2017, published 2020).

This assay concerns Pistacia atlantica x P. intergerrina plants. In words: In vitro initiation and multiplication of pistachio on solid medium. Type of assay: cell-based. The method, then:
Fully developed pistachio plants were cut into single-node explants, shoot tips, basal (bottom) parts of plants with multiple buds, and cultured on different agar-solidified culture media under standard tissue culture conditions (16 h light photoperiod, cool white fluorescent lights at 80-100 μmol/m^2/s light intensity, 24° C.).
Culture vessels (baby food jars) with ventilated lids are used in all experiments: 1-3 explants per 1 vessel, 12 vessels per each experimental medium, 40 ml of medium in each vessel. The explants are subcultured every 30 days, photographed every week, and observed daily.
The culture media differed in composition of major macronutrients (e.g., MS vs. WPM vs. DKW), individual elements (calcium, magnesium, phosphorus, zinc copper, boron, etc.), as well as in type and concentration of plant growth regulators (PGRs).
The compositions of these media are presented in FIG. 38, and their key advantages are based on data presented below.
Because the type and dosage of PGRs are usually the key factors controlling the morphogenetic response of plant cells in vitro, the main work was focused on testing various concentrations of cytokinins or cytokinin-like compounds (TDZ, 2iP, BA, meta-Topolin, ZR), alone or in combination with auxins (NAA, IAA, IBA), to induce organogenesis and high frequency multiplication in Pistacia atlantica x P. intergerrina. In the absence of PGRs (i.e., on hormone-free media), the plant growth was very poor and the culture gradually died within several weeks. In contrast, the culture media with 1-3 mg/l meta-Topolin, alone or in combination with 0.02-1 mg/l NAA or IBA, provided the highest rate of shoot organogenesis with the fastest response: each explant formed multiple meristematic buds, and the first axillary shoots appeared as early as 3 days after the explants were placed on the media. […] The multiplication rate of pistachio plants cultured on BOO3, BOO6, BOO4, and BOO7 media was 2-7 times every 30 days. […]

The mark [1] stands for this setting: 1-3 mg/l meta-Topolin, alone or in combination with 0.02-1 mg/l NAA or IBA.

Turning to `Oc1cccc(CNc2ncnc3[nH]cnc23)c1` [meta-Topolin, 6-(3-hydroxybenzylamino)-purine], under setting [1], the “first axillary shoots appeared after the explants were placed on the media” value is listed as not below 3 days and the “rate of shoot organogenesis” value is on record as “highest”.

Consider `C=C1C[C@]23C[C@@]1(O)CC[C@H]2[C@@]12C=C[C@H](O)[C@@](C)(C(=O)O1)[C@H]2[C@@H]3C(=O)O` [GA3, gibberellic acid], for which, where the note is “2 mg/l of GA3 added into the media”, the “shoot development from dormant buds of plant bases” value is given as “induced shoot development”.
